Measurements as given in US10765114B2, “4-amino-6-(pyridyl and 2-substitutedphenyl)-picolinates and 6-amino-2-(pyridyl and 2-substitutedphenyl)-pyrimidine-4-carboxylates and their use as herbicides” (Dow AgroSciences LLC, priority 2013, dated 2020).

These compounds were tested on ALOMY (blackgrass) (assay: Post-Emergent Test III (Wheat and Barley)). Conditions: Alopecurus myosuroides, post-emergence, 504 h; 35 g ai/ha, postemergence; read-out: Visual Growth Reduction (%) 21 Days After Application, ALOMY.
Assay type: in vivo, Alopecurus myosuroides
Description: (§1) Seeds of the desired test plant species were planted in Sun Gro MetroMix® 306 planting mixture, which typically has a pH of 6.0 to 6.8 and an organic matter content of about 30 percent, in plastic pots with a surface area of 103.2 square centimeters (cm^2). When required to ensure good germination and healthy plants, a fungicide treatment and/or other chemical or physical treatment was applied. The plants were grown for 7-36 days in a greenhouse with an approximate 14 h photoperiod which was maintained at about 18° C. during the day and 17° C. during the night. Nutrients and water were added on a regular basis and supplemental lighting was provided with overhead metal halide 1000-Watt lamps as necessary. The plants were employed for testing when they reached the second or third true leaf stage.
(§2) A weighed amount, determined by the highest rate to be tested, of each test compound was placed in a 25 mL glass vial and was dissolved in 4 mL of a 97:3 v/v mixture of acetone and DMSO to obtain concentrated stock solutions. […] The concentrated stock solutions obtained were diluted with 20 mL of an aqueous mixture containing acetone, water, isopropyl alcohol, DMSO, Agri-Dex crop oil concentrate, and X-77 surfactant in a 48:39:10:1.5:1.5:0.02 v/v ratio to obtain spray solutions containing the highest application rates. Additional application rates were obtained by serial dilution of 12 mL of the high rate solution into a solution containing 2 mL of 97:3 v/v mixture of acetone and DMSO and 10 mL of an aqueous mixture containing acetone, water, isopropyl alcohol, DMSO, Agri-Dex crop oil concentrate, and X-77 surfactant in a 48:39:10:1.5:1.5:0.02 v/v ratio to obtain ½×, ¼×, ⅛× and 1/16× rates of the high rate. Compound requirements are based upon a 12 mL application volume at a rate of 187 liters per hectare (L/ha). Formulated compounds were applied to the plant material with an overhead Mandel track sprayer equipped with 8002E nozzles calibrated to deliver 187 L/ha over an application area of 0.503 square meters at a spray height of 18 inches (43 cm) above the average plant canopy height. Control plants were sprayed in the same manner with the solvent blank.
(§3) The treated plants and control plants were placed in a greenhouse as described above and watered by subirrigation to prevent wash-off of the test compounds. After 21 dAYS, the condition of the test plants as compared with that of the untreated plants was determined visually and scored on a scale of 0 to 100 percent where 0 corresponds to no injury and 100 corresponds to complete kill and presented as indicated in Table A.
(§4) By applying the well-accepted probit analysis as described by J. Berkson in Journal of the American Statistical Society, 48, 565 (1953) and by D. Finney in “Probit Analysis” Cambridge University Press (1952), herbicidal injury of a specific compound at various rates can be used to calculate GR10, GR20, GR50, GR80 and GR90 values, which are defined as growth reduction factors that correspond to the effective dose of herbicide required to provide plant growth reduction (GR) of 10 percent, 20 percent, 50 percent, 80 percent and 90 percent, respectively. Probit analysis was applied to data collected from multiple dose rates of individual compounds utilizing the procedures explained in the following examples. The analysis of those dose rates is captured in the following tables.

SMILES	pest or weed control at 35 g/ha [%]
Nc1c(F)c(-c2ccc(C3CC3)nc2)nc(C(=O)O)c1Cl [Compound 36, 4-amino-5-chloro-6′-cyclopropyl-3-fluoro-[2,3′-bipyridine]-6-carboxylic acid]	0 to 29

Same assay, conditions: Alopecurus myosuroides, post-emergence, 504 h; 70 g ai/ha, postemergence; read-out: Visual Growth Reduction (%) 21 Days After Application, ALOMY

SMILES	pest or weed control at 70 g/ha [%]
Nc1c(F)c(-c2ccc(C3CC3)nc2)nc(C(=O)O)c1Cl [Compound 36, 4-amino-5-chloro-6′-cyclopropyl-3-fluoro-[2,3′-bipyridine]-6-carboxylic acid]	30 to 44

Same assay, conditions: effective dose for growth reduction of 50 percent, probit analysis

SMILES	GR50, ALOMY [g ai/ha]
Nc1c(F)c(-c2ccc(C3CC3)nc2)nc(C(=O)O)c1Cl [Compound 36, 4-amino-5-chloro-6′-cyclopropyl-3-fluoro-[2,3′-bipyridine]-6-carboxylic acid]	126

Same assay, conditions: effective dose for growth reduction of 80 percent, probit analysis

SMILES	GR80, ALOMY [g ai/ha]
Nc1c(F)c(-c2ccc(C3CC3)nc2)nc(C(=O)O)c1Cl [Compound 36, 4-amino-5-chloro-6′-cyclopropyl-3-fluoro-[2,3′-bipyridine]-6-carboxylic acid]	>140

Each compound was assayed on APESV (windgrass) (assay: Post-Emergent Test III (Wheat and Barley)). Conditions: Apera spica-venti, post-emergence, 504 h; 35 g ai/ha, postemergence; read-out: Visual Growth Reduction (%) 21 Days After Application, APESV.
Assay type: in vivo, Apera spica-venti
Description: as §1, §2, §3, §4

SMILES	pest or weed control at 35 g/ha [%]
Nc1c(F)c(-c2ccc(C3CC3)nc2)nc(C(=O)O)c1Cl [Compound 36, 4-amino-5-chloro-6′-cyclopropyl-3-fluoro-[2,3′-bipyridine]-6-carboxylic acid]	45 to 59

Same assay, conditions: Apera spica-venti, post-emergence, 504 h; 70 g ai/ha, postemergence; read-out: Visual Growth Reduction (%) 21 Days After Application, APESV

SMILES	pest or weed control at 70 g/ha [%]
Nc1c(F)c(-c2ccc(C3CC3)nc2)nc(C(=O)O)c1Cl [Compound 36, 4-amino-5-chloro-6′-cyclopropyl-3-fluoro-[2,3′-bipyridine]-6-carboxylic acid]	85 to 94

Same assay, conditions: effective dose for growth reduction of 50 percent, probit analysis

SMILES	GR50, APESV [g ai/ha]
Nc1c(F)c(-c2ccc(C3CC3)nc2)nc(C(=O)O)c1Cl [Compound 36, 4-amino-5-chloro-6′-cyclopropyl-3-fluoro-[2,3′-bipyridine]-6-carboxylic acid]	24

Same assay, conditions: effective dose for growth reduction of 80 percent, probit analysis

SMILES	GR80, APESV [g ai/ha]
Nc1c(F)c(-c2ccc(C3CC3)nc2)nc(C(=O)O)c1Cl [Compound 36, 4-amino-5-chloro-6′-cyclopropyl-3-fluoro-[2,3′-bipyridine]-6-carboxylic acid]	53

Each compound was assayed on KCHSC (kochia) (assay: Post-Emergent Test III (Wheat and Barley)). Conditions: Bassia scoparia, post-emergence, 504 h; 35 g ai/ha, postemergence; read-out: Visual Growth Reduction (%) 21 Days After Application, KCHSC.
Assay type: in vivo, Kochia scoparia
Description: as §1, §2, §3, §4

SMILES	pest or weed control at 35 g/ha [%]
Nc1c(F)c(-c2ccc(C3CC3)nc2)nc(C(=O)O)c1Cl [Compound 36, 4-amino-5-chloro-6′-cyclopropyl-3-fluoro-[2,3′-bipyridine]-6-carboxylic acid]	45 to 59

Same assay, conditions: Bassia scoparia, post-emergence, 504 h; 70 g ai/ha, postemergence; read-out: Visual Growth Reduction (%) 21 Days After Application, KCHSC

SMILES	pest or weed control at 70 g/ha [%]
Nc1c(F)c(-c2ccc(C3CC3)nc2)nc(C(=O)O)c1Cl [Compound 36, 4-amino-5-chloro-6′-cyclopropyl-3-fluoro-[2,3′-bipyridine]-6-carboxylic acid]	60 to 74

Same assay, conditions: effective dose for growth reduction of 50 percent, probit analysis

SMILES	GR50, KCHSC [g ai/ha]
Nc1c(F)c(-c2ccc(C3CC3)nc2)nc(C(=O)O)c1Cl [Compound 36, 4-amino-5-chloro-6′-cyclopropyl-3-fluoro-[2,3′-bipyridine]-6-carboxylic acid]	34

Same assay, conditions: effective dose for growth reduction of 80 percent, probit analysis

SMILES	GR80, KCHSC [g ai/ha]
Nc1c(F)c(-c2ccc(C3CC3)nc2)nc(C(=O)O)c1Cl [Compound 36, 4-amino-5-chloro-6′-cyclopropyl-3-fluoro-[2,3′-bipyridine]-6-carboxylic acid]	108

The compounds below were run on LOLSS (assay: Post-Emergent Test III (Wheat and Barley)). Conditions: effective dose for growth reduction of 50 percent, probit analysis.
Assay type: in vivo
Description: as §1, §2, §3, §4

SMILES	GR50, LOLSS [g ai/ha]
Nc1c(F)c(-c2ccc(C3CC3)nc2)nc(C(=O)O)c1Cl [Compound 36, 4-amino-5-chloro-6′-cyclopropyl-3-fluoro-[2,3′-bipyridine]-6-carboxylic acid]	44

Same assay, conditions: effective dose for growth reduction of 80 percent, probit analysis

SMILES	GR80, LOLSS [g ai/ha]
Nc1c(F)c(-c2ccc(C3CC3)nc2)nc(C(=O)O)c1Cl [Compound 36, 4-amino-5-chloro-6′-cyclopropyl-3-fluoro-[2,3′-bipyridine]-6-carboxylic acid]	131

Same assay, conditions: post-emergence, 504 h; 35 g ai/ha, postemergence; read-out: Visual Growth Reduction (%) 21 Days After Application, LOLSS

SMILES	pest or weed control at 35 g/ha [%]
Nc1c(F)c(-c2ccc(C3CC3)nc2)nc(C(=O)O)c1Cl [Compound 36, 4-amino-5-chloro-6′-cyclopropyl-3-fluoro-[2,3′-bipyridine]-6-carboxylic acid]	45 to 59

Same assay, conditions: post-emergence, 504 h; 70 g ai/ha, postemergence; read-out: Visual Growth Reduction (%) 21 Days After Application, LOLSS

SMILES	pest or weed control at 70 g/ha [%]
Nc1c(F)c(-c2ccc(C3CC3)nc2)nc(C(=O)O)c1Cl [Compound 36, 4-amino-5-chloro-6′-cyclopropyl-3-fluoro-[2,3′-bipyridine]-6-carboxylic acid]	45 to 59

The compounds below were run on TRZSS (assay: Post-Emergent Test III (Wheat and Barley)). Conditions: Triticum aestivum, post-emergence, 504 h; 35 g ai/ha, postemergence; read-out: Visual Growth Reduction (%) 21 Days After Application, TRZSS.
Assay type: in vivo
Description: as §1, §2, §3, §4

SMILES	pest or weed control at 35 g/ha [%]
Nc1c(F)c(-c2ccc(C3CC3)nc2)nc(C(=O)O)c1Cl [Compound 36, 4-amino-5-chloro-6′-cyclopropyl-3-fluoro-[2,3′-bipyridine]-6-carboxylic acid]	60 to 74

Same assay, conditions: Triticum aestivum, post-emergence, 504 h; 70 g ai/ha, postemergence; read-out: Visual Growth Reduction (%) 21 Days After Application, TRZSS

SMILES	pest or weed control at 70 g/ha [%]
Nc1c(F)c(-c2ccc(C3CC3)nc2)nc(C(=O)O)c1Cl [Compound 36, 4-amino-5-chloro-6′-cyclopropyl-3-fluoro-[2,3′-bipyridine]-6-carboxylic acid]	75 to 84

Same assay, conditions: effective dose for growth reduction of 20 percent, probit analysis

SMILES	GR20, TRZSS [g ai/ha]
Nc1c(F)c(-c2ccc(C3CC3)nc2)nc(C(=O)O)c1Cl [Compound 36, 4-amino-5-chloro-6′-cyclopropyl-3-fluoro-[2,3′-bipyridine]-6-carboxylic acid]	1

These compounds were tested on HORSS (assay: Post-Emergent Test III (Wheat and Barley)). Conditions: Hordeum vulgare, post-emergence, 504 h; 35 g ai/ha, postemergence; read-out: Visual Growth Reduction (%) 21 Days After Application, HORSS.
Assay type: in vivo
Description: as §1, §2, §3, §4

SMILES	pest or weed control at 35 g/ha [%]
Nc1c(F)c(-c2ccc(C3CC3)nc2)nc(C(=O)O)c1Cl [Compound 36, 4-amino-5-chloro-6′-cyclopropyl-3-fluoro-[2,3′-bipyridine]-6-carboxylic acid]	60 to 74

Same assay, conditions: Hordeum vulgare, post-emergence, 504 h; 70 g ai/ha, postemergence; read-out: Visual Growth Reduction (%) 21 Days After Application, HORSS

SMILES	pest or weed control at 70 g/ha [%]
Nc1c(F)c(-c2ccc(C3CC3)nc2)nc(C(=O)O)c1Cl [Compound 36, 4-amino-5-chloro-6′-cyclopropyl-3-fluoro-[2,3′-bipyridine]-6-carboxylic acid]	75 to 84

Same assay, conditions: effective dose for growth reduction of 20 percent, probit analysis

SMILES	GR20, HORSS [g ai/ha]
Nc1c(F)c(-c2ccc(C3CC3)nc2)nc(C(=O)O)c1Cl [Compound 36, 4-amino-5-chloro-6′-cyclopropyl-3-fluoro-[2,3′-bipyridine]-6-carboxylic acid]	1
